Experimental data as given in PubChem BioAssay AID743417 (Broad Institute, 2014).
Results filed as inconclusive are left out. *1 amine or outer side, *2 acyl side, *3 side chain or, on linkers, in order; H or OH if unused. Where a SMILES comes first, the peptide text is derived from it. Bridges are numbered along the chain shown (N, C = ends). [ ]: non-standard residue; d: D form. ξ: configuration not given here. X1 = CC[C@H](CCC[C@@H](O)[C@@H](C)C(=O)O[C@H](C)[C@@H](C)C/C=C(C)/C(=C\C(=O)[*:1])OC)O[*:2]; NMeξIle = CC[C@H](C)C(NC)C(=O)O; NMeV = CN[C@H](C(=O)O)C(C)C; NMeS = CN[C@@H](CO)C(=O)O

Each compound was assayed on Clone20 osteoblast Shn3 3'UTR firefly luciferase, 24 h (assay: Schnurri-3 3'UTR-luciferase signal suppressors – cell-based, Clone20 osteoblasts, luminescence, dry powder, set 2, dose response (AID 743417)).

SMILES | AC50 [µM]
CCCCC(=O)NC(c1ccc(OC)c(OC)c1)c1ccc2cccnc2c1O (stereo not given) | 1.36
O=C(c1cc(COc2cccc3cnccc23)on1)N1CCCC(CCCO)C1 (stereo not given) | 0.519
Fc1ccc2[nH]c3c(N4CCc5ccccc5C4)ncnc3c2c1 | 0.466
O=C(Nc1ccc2nc3n(c(=O)c2c1)CCCCC3)c1cc([N+](=O)[O-])ccc1F | 14.1
CN1OC[C@@H]2CN[C@H](c3ccc(-c4cc5ccccc5o4)cc3)C[C@@H]21 | < 0.26
Cc1ccc(-c2nc(-c3ccccn3)no2)cc1 | 1.96
O=C1CC(c2ccccc2)CC(O)=C1C=Nc1cccc(Cl)c1 (stereo not given) | 4.94
OC(c1cc(-c2cccc(Cl)c2)nc2ccccc12)C1CCCCN1 (stereo not given) | 10.8
Cn1nc(C(C)(C)C)cc1C(=O)N1CCCCC1c1cc(C(=O)Nc2ccc(F)c(Cl)c2)no1 (stereo not given) | 3.04
Cc1cccc(CS(=O)(=O)c2ncc(Cl)c(C(=O)NCc3ccc4c(c3)OCO4)n2)c1 | 0.938
O=C(N[C@@H]1C/C=C\C[C@@H](CC(=O)N(CCO)Cc2ccccc2)C(=O)NC[C@H](c2ccccc2)OC1=O)OCC1c2ccccc2-c2ccccc21 | 7.04
COc1ccc(CNC(=O)c2nc(S(=O)(=O)Cc3ccccc3)ncc2Cl)cc1 | 0.956
CN(c1cccc(NC(=O)CN(c2ccc(C34CC5CC(CC(C5)C3)C4)cc2)S(C)(=O)=O)c1)S(C)(=O)=O | 7.58
OCCCNc1nccc(-c2cc(Nc3cccc(Cl)c3)ncn2)n1 | 2.61
COc1ccc(COc2ccccc2C(=O)NCc2ccccc2)cc1F | 4.76
COC(=O)C1=C(c2ccc(OCc3ccccc3)cc2)C[C@@H]2CC[C@H]1N2C(=O)NCc1ccc(C(C)(C)C)cc1 | 6.84
CCCNC(=O)c1nnsc1S(=O)(=O)c1ccc(Cl)cc1 | 3.63
CS(=O)(=O)c1nc(-c2ccc(F)cc2)cc(C(F)(F)F)n1 | 2.72
Cc1cccc(C(=O)Nc2ccc(C(=O)/C=C/c3ccncc3)cc2)c1 | 3.41
O=C(Nc1ccc(Cl)cc1)c1cc(S(=O)(=O)N2CCOCC2)cs1 | 4.23
CN1/C(=C\C=C2/SC(=S)NC2=O)C(C)(C)c2ccccc21 | 2.6
CC(=O)OCCCNc1cc(Sc2ccc(C)cc2)c2nonc2c1[N+](=O)[O-] | 1.1
O=C(CN(C(=O)c1ccccc1Cl)C1CCCCC1)Nc1ccc(Cl)c([N+](=O)[O-])c1 | 5.1
Cc1c(CCOC(=O)C23CC4(C)CC(C)(CC(C)(C4)C2)C3)sc[n+]1CC(=O)c1ccccc1 | 5.84

SMILES | AC50 [µM]
COc1ccccc1-n1cc([C@@H]2C[C@H]3CN(c4ccccc4)C(=O)[C@]34CCCN24)cn1 | 1.46
COc1ccc(NC(=O)/C(Cl)=C(/Cl)S(=O)Cc2ccc(Cl)cc2)cn1 (stereo not given) | 1.34
Fc1ccc2[nH]c3c(NCc4ccccc4)ncnc3c2c1 | 3.09
O=[N+]([O-])c1ccc(O)c(-c2cc(C(F)(F)F)nc(-c3ccccc3)n2)c1 | 2.73
COc1ccc(C(=O)Nc2nc3ccccc3s2)c(OC)c1 | 0.523
Cc1ccc(C)c(N2CCN(C(=O)CCCCCn3c(=S)[nH]c4ccc(N5CCOCC5)cc4c3=O)CC2)c1 | 1.99
CCCC(=O)OCCNc1cc(Sc2nccn2C)c2nonc2c1[N+](=O)[O-] | 7.22
O=c1[nH]c2ccccc2n1C1CCN(C(CCc2ccccc2)c2nnnn2Cc2ccccc2)CC1 (stereo not given) | 1.23
CC(C)NC(=O)C1CCN(C(=O)c2cc3sccc3n2Cc2ccc(F)cc2)CC1 | 5.05
CCCCC(=O)NC(c1ccccc1Cl)c1ccc2cccnc2c1O (stereo not given) | 1.12
COC(=O)C1=C(c2ccc(F)cc2OCc2ccccc2)C[C@@H]2CC[C@H]1N2C(=O)NC1Cc2ccccc2C1 | 8
Cc1ccc(NC(=O)CSc2nn(-c3ccccc3)c(=S)s2)cc1S(=O)(=O)N(C)C | 5.82
C=C1C(=O)O[C@H]2[C@H]1[C@H](OC(=O)CC(=O)O[C@@H]1C[C@@H](C)[C@@H]3C=CC(=O)[C@@]3(C)[C@H]3OC(=O)C(=C)[C@H]13)C[C@@H](C)[C@H]1C=CC(=O)[C@]12C | 1.54
CN(Cc1ccccc1)C(=O)c1cccc(NC(=O)Cc2ccc([N+](=O)[O-])cc2)c1 | 16.8
Cc1ccc(S(=O)(=O)NCc2ccc(C(=O)N3CCN(c4ccc([N+](=O)[O-])cc4)CC3)cc2)cc1 | 3.79
COc1ccc(CNc2ncnc3sccc23)cc1OC | 2.34
COc1cc(OC)c(OC)cc1CNc1cc(C)ccc1OC | 18.1
CCCCCc1nc2c(c(=O)c3ccccc3n2C)c(=O)n1C1CCCCCC1 | 8.21
CCN(CC)CCCNc1nc2ccccc2c2[nH]c3ccc(OC)cc3c12 | 12.3
CC(=O)c1cccc(NS(=O)(=O)c2ccc(-c3cnc(C4CC4)o3)cc2)c1 | 5
CCN(CC)c1ccc(CNc2nc3ccccc3n2CCN2CCCCC2)cc1 | 2.64
O=C(NCc1cccnc1)/C(=C/c1ccc(-c2ccc(Cl)cc2)o1)S(=O)(=O)c1ccccc1 | 5.35
Cn1nnnc1Sc1ncnc2scc(Br)c12 | 6.51
CCC12CN(S(=O)(=O)c3ccc(C)cc3)CC(CC)(CN(S(=O)(=O)c3ccc(C)cc3)C1)C2=O | 3.48

SMILES | AC50 [µM]
CCn1c(C)nc2cc(-c3nnc(-c4c(-c5ccccc5)noc4C)o3)ccc21 | 5.82
O=S(=O)(NCc1ccncc1)c1ccc(F)c(F)c1 | 2.09
CC(OC(=O)c1ccc(S(C)(=O)=O)c([N+](=O)[O-])c1)C(=O)NC1C2CC3CC(C2)CC1C3 (stereo not given) | 1.4
Cc1ccc(-n2nnnc2C(Cl)(Cl)c2nnnn2-c2ccc(C)cc2)cc1 | 4.71
COC(=O)C1=C(c2ccc(OCc3ccccc3)cc2)C[C@@H]2CC[C@H]1N2C(=O)NCc1ccc(OC)c(OC)c1 | 19.7
Cn1c(SCc2ccc(F)cc2Cl)nc2ccccc2c1=O | 8.65
O=C(OCCOc1ccc(Cl)cc1)c1cc(S(=O)(=O)N2CCCCC2)ccc1N1CCOCC1 | 1.97
CCC(=O)c1ccc(OCc2ccc(C(=O)c3ccccc3)cc2)cc1 | 3.29
Nc1nc(Cl)cc(N2CCC(c3cc(-c4ccc(Cl)cc4)n[nH]3)CC2)n1 | 2.43
CC[C@@H]1CCC[C@@H](O)[C@@H](C)C(=O)O[C@H](C)[C@@H](C)C/C=C(C)/C(OC)=C\C(=O)N(C)C([C@@H](C)CC)C(=O)N(C)[C@@H](C(C)C)C(=O)N(C)[C@@H](COC)C(=O)N2CCC[C@H]2C(=O)N(C)[C@@H](C(C)C)C(=O)N2CCC[C@H]2C(=O)O1 (stereo not given in full) ([NMeξIle][NMeV][NMeS](Me)P[NMeV]P; linker N-C via X1) | < 0.26
Cc1cc(C)nc(S/C=C/C(=O)c2ccccc2)n1 | 1.72
Cc1cc(C(=O)NC2CCCc3c2cnn3-c2ccc(C)c(C)c2)n(C)n1 (stereo not given) | < 0.26
CC(CNC(=O)c1cc(COc2ccc3ncccc3c2)on1)c1ccccc1 (stereo not given) | 3.73
CS(=O)(=O)c1nc(-c2ccc(Br)cc2)cc(-c2ccccc2)c1C#N | 4.72
C#CC(=O)N(c1ccc(OC)c(OC)c1)C(C(=O)NC1CCCC1)c1cccs1 (stereo not given) | 3.32
Cc1ccc(-c2ccc(/C=C3\C(=O)ON=C3c3ccccc3)o2)c([N+](=O)[O-])c1 | 3.3
Cc1ccc(NC(=O)C2CCN(S(=O)(=O)c3ccc(N4CCCC4=O)cc3)CC2)cc1Cl | 0.549
CCc1ccc(CNC(=O)c2cc3c(C)nc4ccccc4c3o2)cc1 | 2.02
Cc1ccc(NC(=O)c2oc3ccccc3c2COC(C)C)cc1S(=O)(=O)N1CCOCC1 | 14.4
CCCSc1nnc(CSc2nc3ccccc3s2)n1-c1ccccc1 | 7.05
Nc1nonc1C(=O)NCCNCc1cc(Br)ccc1OCc1ccccc1F | 2.5
COc1ccc(CNCCc2ccc(Cl)cc2)cc1OCc1ccccc1 | 5.59
